# Laboratory results as given in article PMC11784026, “Phase 1 study of the safety, tolerability, and pharmacokinetics of a synthetic macrocyclic peptide antibiotic (BRII-693) in healthy adult participants” (Antimicrobial Agents and Chemotherapy, 2024).
# Read-outs that look alike come from different tables or passages of the source. Where a SMILES comes first, the peptide text is derived from it. Bridges are numbered along the chain shown (N, C = ends). [ ]: non-standard residue; d: D form. The star is where a group is joined. X1 = O=C(c1ccc(Cl)cc1Cl)*; Dab = NCC[C@H](N)C(=O)O; Abu = CC[C@H](N)C(=O)O; Dap = NC[C@H](N)C(=O)O
# Experiments:
# [1] = Plasma pharmacokinetics after multiple ascending doses (MAD), phase 1; assay type: in vivo, human (healthy adult participants); details: human, plasma, iv, 200 mg, Last q6h dose (day 9)
# Procedure: Participants were discharged on day 11.
# (§1) Plasma and urine PK parameters were summarized for each cohort using descriptive statistics. Analyses using linear models were performed to assess dose proportionality (both single-dose cohorts 1–7 and multiple-dose cohorts 8–10). Dose-linearity of Cmax and AUC across the dose range was assessed by fitting the power model with ln-transformed parameter as response variables and ln-transformed dose (continuous variable) as a fixed effect. For each PK parameter and study phase (SAD or MAD) separately, a pooled estimate (across all dose cohorts) of slope, corresponding 95% confidence interval (CI), and between-subject coefficient of variation (CV) were calculated. Dose proportionality was to be concluded if the 95% CI for the slope spans 1. […] Least square means (LSMs) and difference in LSMs with 90% CI were calculated; these values were then back exponentiated to give the geometric LSM, geometric mean ratio, and 90% CI.
# [2] = Plasma pharmacokinetics after single ascending doses (SAD), phase 1; assay type: in vivo, human (healthy adult participants); details: for clearance / Vd / half-life / AUC(0-inf) / Cmax / AUC(0-t) / Tmax: human, plasma; for clearance: total clearance; for Vd: volume of distribution during terminal phase, read-out: VZ; for half-life: apparent terminal half-life; for AUC(0-t): read-out: AUC0–6h
# Procedure: Participants were then discharged on day 3.
# as §1
# [3] = single 1-h IV infusion 10 mg, n = 6, arithmetic mean ± SD
# [4] = single 1-h IV infusion 25 mg, n = 5, arithmetic mean ± SD
# [5] = single 1-h IV infusion 50 mg, n = 6, arithmetic mean ± SD
# [6] = single 1-h IV infusion 100 mg, n = 6, arithmetic mean ± SD
# [7] = single 1-h IV infusion 200 mg, n = 6, arithmetic mean ± SD
# [8] = single 1-h IV infusion 300 mg, n = 6, arithmetic mean ± SD
# [9] = single 1-h IV infusion 400 mg, n = 6, arithmetic mean ± SD
structure (smiles),measurement,setting,value
CC[C@@H]1NC(=O)[C@@H](CC(C)C)NC(=O)[C@H](CCN)NC(=O)[C@@H](NC(=O)[C@H](CN)NC(=O)[C@@H](NC(=O)[C@H](CCN)NC(=O)c2ccc(Cl)cc2Cl)[C@@H](C)O)CCNC(=O)[C@H]([C@@H](C)O)NC(=O)[C@H](CCN)NC(=O)[C@H](CCN)NC1=O [BRII-693] (X1-[Dab]T[Dap][Dab][Dab][dL][Abu][Dab][Dab]T; lactam 4-C; N-terminus assumed),Vd,"[1]; 7-day MAD 200 mg q6h × 7, n = 5, arithmetic mean ± SD, read-out: VZ",37.3 ± 8.4 L
same,Tmax,"[1]; 7-day MAD 200 mg q6h × 7, n = 5, median (range), read-out: Tmax",1.1 h
same,Cmax,"[1]; 7-day MAD 200 mg q6h × 7, plasma, n = 5, arithmetic mean ± SD",18.3 ± 4.15 µg/mL
same,Participants reporting AEs,"7-day MAD cohorts 8–10, after multiple dosing, all BRII-693-treated (5 of 17)",29.4%
same,Participants reporting AEs,"7-day MAD cohorts 8–10, after single dosing on day 1, all BRII-693-treated (3 of 17)",17.6%
same,"Participants who discontinued the study due to treatment-related AE (headache, moderate)","7-day MAD, 200 mg, after the single dose on day 1 (One of 6)",16.7%
same,Participants reporting AEs,"7-day MAD, after multiple dosing, 100 mg q6h (2 of 6)",33.3%
same,Participants reporting AEs,"7-day MAD, after multiple dosing, 200 mg q6h (3 of 6)",50.0%
same,Participants reporting AEs,"7-day MAD, after single dosing on day 1, 150 mg (1 of 5)",20.0%
same,Participants reporting AEs,"7-day MAD, after single dosing on day 1, 200 mg (2 of 6)",33.3%
same,Participants reporting AEs,"SAD phase, 100 mg (1 of 6)",16.7%
same,Participants reporting AEs,"SAD phase, 200 mg (1 of 6)",16.7%
same,Severity of AEs,"SAD phase, all AEs (five events, placebo included)",mild in severity
same,Participants reporting AEs,"SAD phase, all BRII-693-treated participants (2 of 41)",4.9%
same,Participants reporting AEs,"cohort 11, 150 mg q6h × 14 days, non-Chinese (5 of 10)",50.0%
same,Participants reporting AEs,"cohort 12, 150 mg q6h × 14 days, Chinese (Five of the 10)",50.0%
same,Overall safety and tolerability,"in vivo, iv",safe and well tolerated
same,clearance,[2]; [3],63.8 mL/min
same,Vd,[2]; [3],14.1 ± 1.54 L
same,clearance,[2]; [4],72.7 mL/min
same,Vd,[2]; [4],20.7 ± 7.61 L
same,clearance,[2]; [5],69.5 mL/min
same,Vd,[2]; [5],19.2 ± 3.34 L
same,clearance,[2]; [6],62.7 mL/min
same,Vd,[2]; [6],21.8 ± 3.17 L
same,clearance,[2]; [7],68.5 mL/min
same,Vd,[2]; [7],21.3 ± 3.27 L
same,clearance,[2]; [8],72.3 mL/min
same,Vd,[2]; [8],25.8 ± 2.73 L
same,clearance,[2]; [9],65.5 mL/min
same,Vd,[2]; [9],24.6 ± 2.47 L
same,half-life,[2]; [3],2.58 ± 0.46 h
same,AUC(0-inf),[2]; [3],2.64 ± 0.33 µg·h/mL
same,Cmax,[2]; [3],0.77 ± 0.12 µg/mL
same,AUC(0-t),[2]; [3],2.08 ± 0.19 µg·h/mL
same,Tmax,"[2]; single 1-h IV infusion 10 mg, n = 6, median (range)",1.12 h
same,half-life,[2]; [4],3.22 ± 0.77 h
same,AUC(0-inf),[2]; [4],5.94 ± 1.18 µg·h/mL
same,Cmax,[2]; [4],1.5 ± 0.38 µg/mL
same,AUC(0-t),[2]; [4],4.39 ± 1.13 µg·h/mL
same,Tmax,"[2]; single 1-h IV infusion 25 mg, n = 5, median (range)",1.1 h
same,half-life,[2]; [5],3.2 ± 0.43 h
same,AUC(0-inf),[2]; [5],12.2 ± 1.79 µg·h/mL
same,Cmax,[2]; [5],3.23 ± 0.46 µg/mL
same,AUC(0-t),[2]; [5],9.16 ± 1.17 µg·h/mL
same,Tmax,"[2]; single 1-h IV infusion 50 mg, n = 6, median (range)",1.07 h
same,half-life,[2]; [6],4.07 ± 0.61 h
same,AUC(0-inf),[2]; [6],27.3 ± 4.58 µg·h/mL
same,Cmax,[2]; [6],6.71 ± 0.97 µg/mL
same,AUC(0-t),[2]; [6],19.2 ± 2.74 µg·h/mL
same,Tmax,"[2]; single 1-h IV infusion 100 mg, n = 6, median (range)",1.13 h
same,half-life,[2]; [7],3.83 ± 1.23 h
same,AUC(0-inf),[2]; [7],51.4 ± 13.9 µg·h/mL
same,Cmax,[2]; [7],13.2 ± 2.19 µg/mL
same,AUC(0-t),[2]; [7],36.7 ± 6.29 µg·h/mL
same,Tmax,"[2]; single 1-h IV infusion 200 mg, n = 6, median (range)",1.18 h
same,half-life,[2]; [8],4.12 ± 0.23 h
same,AUC(0-inf),[2]; [8],69.8 ± 7.75 µg·h/mL
same,Cmax,[2]; [8],17.3 ± 3.05 µg/mL
same,AUC(0-t),[2]; [8],48.9 ± 6.18 µg·h/mL
same,Tmax,"[2]; single 1-h IV infusion 300 mg, n = 6, median (range)",1.16 h
same,half-life,[2]; [9],4.37 ± 0.51 h
same,AUC(0-inf),[2]; [9],103 ± 11.6 µg·h/mL
same,Cmax,[2]; [9],24.3 ± 4.71 µg/mL
same,AUC(0-t),[2]; [9],71.4 ± 7.2 µg·h/mL
same,Tmax,"[2]; single 1-h IV infusion 400 mg, n = 6, median (range)",1.19 h
same,Mean total clearance,"[2]; single doses 10–400 mg, appeared dose independent",approximately 4 L/h
